Test results: patent US8748602B2, “Polymorphs of erlotinib hydrochloride and method of preparation” (Natco Pharma Limited, priority 2007, dated 2014)
Where a name gives a salt, the structure may show the parent alone.

How the values were obtained:
[1] = compared with polymorphic Form A; cited from earlier work
[2] = solid state stability of the polymorphic forms; type: physicochemical

stability in the solid state ([2]; higher temperatures of the order of 60°-120° C.) | stability in the solid state ([2]; room temperature (30°-35° C.)) | SMILES | thermodynamic stability [1]
 |  | C#Cc1cccc(Nc2ncnc3cc(OCCOC)c(OCCOC)cc23)c1 [Form-B, Erlotinib HCl] | thermodynamically more stable
very stable | very stable | C#Cc1cccc(Nc2ncnc3cc(OCCOC)c(OCCOC)cc23)c1.Cl [Form-M, Erlotinib Hydrochloride] | 
